In ChEMBL document CHEMBL1201862, “PubChem BioAssay data set” (2004):
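48-hour exposure; five concentrations; linearly interpolated endpoints. GI50: concentration for 50% inhibition of growth.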 Activity calls are given as the source filed them. Rule as the data show it: active = GI50 up to about 1.1 µM and inactive = higher.

Columns and labels:
Test in all cases: NCI anticancer screen, dose series, 48 h
A498 = test system: A498
CCRF-CEM = test system: CCRF-CEM
EKVX = test system: EKVX
HCC 2998 = test system: HCC 2998
HCT-116 = test system: HCT-116
HL-60 = test system: HL-60
HOP-92 = test system: HOP-92
KM12 = test system: KM12
NCI-H226 = test system: NCI-H226
NCI-H23 = test system: NCI-H23
NCI-H460 = test system: NCI-H460
NCI-H522 = test system: NCI-H522
RPMI-8226 = test system: RPMI-8226
SK-OV-3 = test system: SK-OV-3
SN12C = test system: SN12C
SNB-75 = test system: SNB-75
SW-620 = test system: SW-620
U-251 = test system: U-251
UACC-62 = test system: UACC-62
UO-31 = test system: UO-31

| SMILES | GI50 (A498) | GI50 (CCRF-CEM) | GI50 (EKVX) | GI50 (HCC 2998) | GI50 (HCT-116) | GI50 (HL-60) | GI50 (HOP-92) | GI50 (KM12) | GI50 (NCI-H226) | GI50 (NCI-H23) | GI50 (NCI-H460) | GI50 (NCI-H522) | GI50 (RPMI-8226) | GI50 (SK-OV-3) | GI50 (SN12C) | GI50 (SNB-75) | GI50 (SW-620) | GI50 (U-251) | GI50 (UACC-62) | GI50 (UO-31) |
| --- | --- | --- | --- | --- | --- | --- | --- | --- | --- | --- | --- | --- | --- | --- | --- | --- | --- | --- | --- | --- |
| CC1=NN(C(=O)c2ccccc2O)C(=O)/C1=C/c1ccc(O)cc1 | 0.134 µM (active) | 1.47 µM (inactive) | 1.81 µM (inactive) | 3.22 µM (inactive) | 0.209 µM (active) | 1.02 µM (active) | 0.218 µM (active) | 0.298 µM (active) | 0.475 µM (active) | 0.568 µM (active) | 0.255 µM (active) | 0.807 µM (active) | 0.312 µM (active) | 0.26 µM (active) | 1.62 µM (inactive) | 0.23 µM (active) | 2.73 µM (inactive) | 0.205 µM (active) | 0.34 µM (active) | 0.153 µM (active) |
| C/C(=N\NC(=O)c1ccncc1)c1sc(-n2nc(-c3ccccc3)cc2-c2ccccc2)nc1C | > 100 µM (inactive) | > 31.6 µM (inactive) | 47.8 µM (inactive) | > 31.6 µM (inactive) | > 31.6 µM (inactive) | 21.5 µM (inactive) | > 31.6 µM (inactive) | 99.5 µM (inactive) | > 64.1 µM (inactive) | > 31.6 µM (inactive) | > 31.6 µM (inactive) | > 35.7 µM (inactive) | 20.7 µM (inactive) | > 31.6 µM (inactive) | > 100 µM (inactive) | > 37.2 µM (inactive) | > 31.6 µM (inactive) | > 31.6 µM (inactive) | > 31.6 µM (inactive) | > 31.6 µM (inactive) |
| Fc1ccc(C(OCCN2CCN(CCCc3ccccc3)CC2)c2ccc(F)cc2)cc1 | 6.97 µM (inactive) | 4.5 µM (inactive) | 4.17 µM (inactive) | 3.79 µM (inactive) |  | 4.2 µM (inactive) | 3.5 µM (inactive) | 4.19 µM (inactive) | 3.75 µM (inactive) | 4.04 µM (inactive) | 4.34 µM (inactive) | 3.48 µM (inactive) | 2.58 µM (inactive) | 6.04 µM (inactive) | 4.11 µM (inactive) | 4.8 µM (inactive) | 5.47 µM (inactive) | 3.65 µM (inactive) | 9.08 µM (inactive) | 2.73 µM (inactive) |
| NC(CCCCNCc1ccccc1)C(=O)O (stereo not given) | > 100 µM (inactive) | > 100 µM (inactive) | > 100 µM (inactive) | > 100 µM (inactive) | > 100 µM (inactive) | > 100 µM (inactive) | > 100 µM (inactive) | > 100 µM (inactive) | > 100 µM (inactive) | > 100 µM (inactive) | > 100 µM (inactive) | > 100 µM (inactive) | > 100 µM (inactive) | > 100 µM (inactive) | > 100 µM (inactive) | > 100 µM (inactive) | > 100 µM (inactive) | > 100 µM (inactive) | > 100 µM (inactive) | > 100 µM (inactive) |
| CC(C)C1(O)C(=O)N(c2c(F)c(F)c(F)c(F)c2F)C(=S)N1CCSc1ccccc1 (stereo not given) | 16.3 µM (inactive) | 13.9 µM (inactive) | 18.8 µM (inactive) | 20.6 µM (inactive) | 18.2 µM (inactive) | 14.3 µM (inactive) | 9.53 µM (inactive) | 17.1 µM (inactive) | 20.7 µM (inactive) | 18.1 µM (inactive) | 19.2 µM (inactive) | 16.6 µM (inactive) | 10.9 µM (inactive) | 17.3 µM (inactive) | 15.3 µM (inactive) | 16.7 µM (inactive) | 16.6 µM (inactive) | 18.2 µM (inactive) | 15.8 µM (inactive) | 15.5 µM (inactive) |
| CCOC(=O)/C=C(\C(=O)OCC)n1ccc(=O)n(Cc2cnnn2CCCCOC(C)=O)c1=O | 21.1 µM (inactive) | 1.99 µM (inactive) | 11 µM (inactive) | 18.4 µM (inactive) | 6.21 µM (inactive) | 2.79 µM (inactive) | 2.57 µM (inactive) | 15.9 µM (inactive) | 17.6 µM (inactive) | 13.2 µM (inactive) | 8.53 µM (inactive) | 1.53 µM (inactive) | 6.68 µM (inactive) | 34 µM (inactive) | 10.4 µM (inactive) | 14 µM (inactive) | 2.05 µM (inactive) | 27.3 µM (inactive) | 6.14 µM (inactive) | 21.7 µM (inactive) |
| COc1ccc(/C=C(\C2=NC(=O)CS2)c2nc3ccccc3[nH]2)cc1 | 75.9 µM (inactive) | 39.4 µM (inactive) | 38.4 µM (inactive) | < 0.01 µM (active) | 85.1 µM (inactive) | > 100 µM (inactive) | 80.2 µM (inactive) | 35.2 µM (inactive) | 8.95 µM (inactive) | 69.7 µM (inactive) | 38.9 µM (inactive) | 16.5 µM (inactive) | > 100 µM (inactive) | 15.8 µM (inactive) | 52.4 µM (inactive) | 28.1 µM (inactive) | > 100 µM (inactive) | 42.3 µM (inactive) | > 100 µM (inactive) | 32.7 µM (inactive) |
| COc1cccc(C(=O)C#Cc2cnc(OC)nc2OC)c1 | 8.69 µM (inactive) | 0.0286 µM (active) | 1.72 µM (inactive) | 6.43 µM (inactive) | 3.18 µM (inactive) | 0.682 µM (active) | 2.09 µM (inactive) | 3.94 µM (inactive) | 1.11 µM (active) | 1.98 µM (inactive) | 9.08 µM (inactive) | 0.226 µM (active) | 2.01 µM (inactive) | 18.1 µM (inactive) | 0.753 µM (active) | 2.26 µM (inactive) | 0.504 µM (active) | 2.84 µM (inactive) | 1.36 µM (inactive) | 1.37 µM (inactive) |
| CCCCNC(=O)OCCN=C1c2ccccc2C(Br)C(Br)c2ccccc21 (stereo not given) | 41.5 µM (inactive) | 10.1 µM (inactive) | 20.3 µM (inactive) | > 100 µM (inactive) | 23.3 µM (inactive) | 9.04 µM (inactive) | 4.46 µM (inactive) | 45.6 µM (inactive) | 76.9 µM (inactive) | 26.3 µM (inactive) | 54.6 µM (inactive) | 22.2 µM (inactive) | 22.5 µM (inactive) | 32.1 µM (inactive) | 32.9 µM (inactive) | 30.5 µM (inactive) | 40.2 µM (inactive) | 23.2 µM (inactive) | > 100 µM (inactive) |  |
| N#C/C(=C/c1ccco1)C(=O)c1ccccc1 | > 100 µM (inactive) | > 100 µM (inactive) | > 100 µM (inactive) | > 100 µM (inactive) | > 100 µM (inactive) | > 100 µM (inactive) | > 100 µM (inactive) | > 100 µM (inactive) | > 100 µM (inactive) | > 100 µM (inactive) | > 100 µM (inactive) | > 100 µM (inactive) | > 100 µM (inactive) | > 100 µM (inactive) | > 100 µM (inactive) | > 100 µM (inactive) | > 100 µM (inactive) | > 100 µM (inactive) | > 100 µM (inactive) | > 100 µM (inactive) |
| COc1cc(C2C(C(=O)Nc3ccccc3C)=C(C)NC(C)=C2C(=O)Nc2ccccc2C)ccc1O | > 100 µM (inactive) | 71.8 µM (inactive) | > 100 µM (inactive) | > 100 µM (inactive) | > 100 µM (inactive) | 60.4 µM (inactive) | > 100 µM (inactive) | > 100 µM (inactive) | > 100 µM (inactive) | > 100 µM (inactive) | > 100 µM (inactive) | > 100 µM (inactive) | 84.7 µM (inactive) | > 100 µM (inactive) | > 100 µM (inactive) | 56.6 µM (inactive) | > 100 µM (inactive) | > 100 µM (inactive) | > 100 µM (inactive) | > 100 µM (inactive) |
| CC(C)(C)OC(=O)NC(CSSCC(NC(=O)OC(C)(C)C)C(=O)O)C(=O)O (stereo not given) | > 100 µM (inactive) | > 100 µM (inactive) | > 100 µM (inactive) | > 100 µM (inactive) | > 100 µM (inactive) | > 100 µM (inactive) | > 100 µM (inactive) | > 100 µM (inactive) | > 100 µM (inactive) | > 100 µM (inactive) | > 100 µM (inactive) | > 100 µM (inactive) | > 100 µM (inactive) | > 100 µM (inactive) | > 100 µM (inactive) | > 100 µM (inactive) | > 100 µM (inactive) | > 100 µM (inactive) | > 100 µM (inactive) | > 100 µM (inactive) |
| CN1c2ccccc2N(C(=O)c2ccc([N+](=O)[O-])cc2)C(CC(=O)O)c2cccn21 (stereo not given) | > 100 µM (inactive) | > 100 µM (inactive) | > 100 µM (inactive) | > 100 µM (inactive) |  | > 100 µM (inactive) | > 100 µM (inactive) | > 100 µM (inactive) | > 100 µM (inactive) | > 100 µM (inactive) | > 100 µM (inactive) | > 100 µM (inactive) | > 100 µM (inactive) | > 100 µM (inactive) | > 100 µM (inactive) | > 100 µM (inactive) | > 100 µM (inactive) |  | > 100 µM (inactive) | > 100 µM (inactive) |
| COC1O[C@H]2CCN(C(=O)OCc3ccccc3)[C@H]2[C@H]1OCc1ccccc1 (stereo not given in full) | > 100 µM (inactive) | 34.9 µM (inactive) | 49.2 µM (inactive) | 47.6 µM (inactive) | 46.6 µM (inactive) | 28.4 µM (inactive) | 26.6 µM (inactive) |  | 78 µM (inactive) | 20.3 µM (inactive) | 44.3 µM (inactive) | 37.6 µM (inactive) | 41 µM (inactive) | 23.6 µM (inactive) | > 100 µM (inactive) | 41.9 µM (inactive) | 50.2 µM (inactive) | 45.9 µM (inactive) | 21.5 µM (inactive) | 29.2 µM (inactive) |
